The text below walks through data of ChEMBL document CHEMBL3734669, “Δ(5)-Cholenoyl-amino acids as selective and orally available antagonists of the Eph-ephrin system” (Eur J Med Chem, 2015).

The structures appear in SMILES notation. In brackets after ≈: the same amount, converted by molar mass. Activity calls are given as the source filed them. The calls are words filed in the database; no cut-off is given here. A value given as a limit tells only on which side of the number the result lay.

For orientation: IC50 means the concentration that inhibits the measured activity by half. Read a high IC50 as a need for much substance. A word on the EC50: it is the concentration giving half of the maximal effect. By Cmax is commonly meant the maximum level reached in the sampled fluid or tissue. A word on the AUC(0-t): it is the area under the concentration-time curve up to a stated or last time point. Read a low AUC(0-t) as less exposure. What is called logD is the decadic logarithm of the distribution of all forms, ionised or not, between an organic phase and buffer at a given pH. Read a high logD as higher lipophilicity.

Data set [1] has as its target T1, Ephrin type-A receptor 2 (Homo sapiens, UniProt P29317). Kind of data set: Displacement of biotinylated-ephrin-A1 from EphA2 receptor (unknown origin) up to 100 uM preincubated for 1 hr followed by biotinylated-ephrin-A1-Fc addition measured after 4 hrs by ELISA. Background: In an ELISA, binding on a coated surface is turned into a signal by an enzyme label.
In data set [2] the target is T1, Ephrin type-A receptor 2. In words: Displacement of biotinylated-ephrin-A1-Fc from EphA2-Fc receptor (unknown origin) preincubated for 1 hr followed by biotinylated-ephrin-A1-Fc addition measured after 4 hrs by ELISA.
Data set [3] in a line: Cytotoxicity against human PC3 cells at 10 to 30 uM after 2 hrs by LDH release assay. The data set is classed as cell-based. The following applies: pc-3, 2 h. Background: Release of lactate dehydrogenase indicates damage to the cell membrane.
For data set [4], the target named is T2, G-protein coupled bile acid receptor 1 (Homo sapiens, UniProt Q8TDU6).
T2 sequence (Q8TDU6 whole entry): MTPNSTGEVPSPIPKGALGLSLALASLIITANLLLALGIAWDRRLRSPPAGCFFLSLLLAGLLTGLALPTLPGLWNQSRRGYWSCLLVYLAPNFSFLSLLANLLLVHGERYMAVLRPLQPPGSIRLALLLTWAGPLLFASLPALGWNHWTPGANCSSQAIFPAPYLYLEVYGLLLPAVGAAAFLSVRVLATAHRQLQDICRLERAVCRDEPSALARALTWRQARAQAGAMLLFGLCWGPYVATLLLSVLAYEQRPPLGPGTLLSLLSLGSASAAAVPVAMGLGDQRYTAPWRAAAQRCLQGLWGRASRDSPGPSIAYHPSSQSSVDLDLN
Kind of data set: Agonist activity at TGR5 (unknown origin) assessed as cAMP level. In kind it is functional.

For data set [5], the target named is T3, Nuclear receptor subfamily 1 group I member 2 (Homo sapiens, UniProt O75469).
T3 sequence (O75469 whole entry): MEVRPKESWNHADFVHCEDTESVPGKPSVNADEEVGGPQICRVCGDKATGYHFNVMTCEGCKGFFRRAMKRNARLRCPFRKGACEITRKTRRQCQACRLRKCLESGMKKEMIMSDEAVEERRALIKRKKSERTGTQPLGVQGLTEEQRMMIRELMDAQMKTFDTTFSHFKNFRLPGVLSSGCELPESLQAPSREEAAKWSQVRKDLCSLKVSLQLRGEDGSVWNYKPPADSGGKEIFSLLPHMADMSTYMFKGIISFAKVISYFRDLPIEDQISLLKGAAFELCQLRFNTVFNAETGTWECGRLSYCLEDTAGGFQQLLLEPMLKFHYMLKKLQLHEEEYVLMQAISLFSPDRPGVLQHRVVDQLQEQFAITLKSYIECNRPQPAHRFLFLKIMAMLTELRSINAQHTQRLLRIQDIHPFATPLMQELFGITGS
Kind of data set: Activation of human recombinant PXR up to 10 uM by alphascreen method. In general terms: Bead proximity is the source of the signal in Alpha formats.

The nature of data set [6]: Cmax in mouse at 30 mg/kg, po administered as single dose by HPLC-MS analysis. The data set is classed as ADME, organism-based. The arrangement: dose 30 mg/kg, route oral. The conditions noted are these: in vivo.
The nature of data set [7]: AUC (0 to t) in mouse at 30 mg/kg, po administered as single dose by HPLC-MS analysis. The data set is classed as ADME, organism-based. The conditions noted are these: in vivo.
A short description of data set [8]: Metabolic stability in mouse plasma assessed as compound remaining at 1 uM after 24 hrs by HPLC-ESI-MS/MS analysis. The data set is classed as ADME, cell-free. The following applies: read-out: Stability.
Data set [9] is described as follows: n-octanol-water distribution coefficient, log D of the compound at pH 7.4 after 4 hrs by shake-flask method. In kind it is physicochemical.
The nature of data set [10]: Metabolic stability in mouse liver S9 fractions assessed as compound remaining at 1 uM after 1 hr by HPLC-ESI-MS/MS analysis in presence of NADPH regenerating system. The conditions noted are these: read-out: Stability. In kind it is ADME, subcellular, Liver S9 fraction.
A short description of data set [11]: Kinetic solubility of the compound in NaCl solution at 25 deg C after 2 hrs by HPLC-ESI-MS/MS analysis. The data set is classed as physicochemical. The following applies: read-out: Kinetic_solubility.

T1 sequence (P29317 whole entry): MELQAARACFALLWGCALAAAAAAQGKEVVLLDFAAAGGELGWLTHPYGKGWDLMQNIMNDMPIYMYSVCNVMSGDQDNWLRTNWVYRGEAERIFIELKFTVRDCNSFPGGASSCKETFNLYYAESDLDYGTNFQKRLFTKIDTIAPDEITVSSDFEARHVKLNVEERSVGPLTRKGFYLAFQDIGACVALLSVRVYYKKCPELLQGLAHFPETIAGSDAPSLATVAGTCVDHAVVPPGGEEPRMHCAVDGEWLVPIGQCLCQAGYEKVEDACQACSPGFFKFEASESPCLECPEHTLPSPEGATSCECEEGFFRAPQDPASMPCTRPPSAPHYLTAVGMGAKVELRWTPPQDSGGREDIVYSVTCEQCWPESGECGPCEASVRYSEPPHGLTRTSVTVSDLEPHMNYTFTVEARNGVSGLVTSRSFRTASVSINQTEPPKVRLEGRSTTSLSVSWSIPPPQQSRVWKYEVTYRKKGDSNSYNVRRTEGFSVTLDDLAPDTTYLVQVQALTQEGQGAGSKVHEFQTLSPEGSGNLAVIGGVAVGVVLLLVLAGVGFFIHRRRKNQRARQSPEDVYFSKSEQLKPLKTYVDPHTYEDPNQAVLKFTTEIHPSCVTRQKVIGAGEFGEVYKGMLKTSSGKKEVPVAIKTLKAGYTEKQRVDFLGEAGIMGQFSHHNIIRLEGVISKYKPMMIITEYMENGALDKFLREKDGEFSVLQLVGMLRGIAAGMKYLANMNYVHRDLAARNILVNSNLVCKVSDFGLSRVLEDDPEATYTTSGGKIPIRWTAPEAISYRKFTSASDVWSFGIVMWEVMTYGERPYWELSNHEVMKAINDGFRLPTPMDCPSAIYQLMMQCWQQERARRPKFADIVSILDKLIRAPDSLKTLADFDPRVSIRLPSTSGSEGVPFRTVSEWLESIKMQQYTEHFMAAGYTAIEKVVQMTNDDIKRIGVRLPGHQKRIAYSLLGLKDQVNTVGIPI

Turning to `COC(=O)[C@H](Cc1c[nH]c2ccccc12)NC(=O)CC[C@@H](C)[C@H]1CC[C@H]2[C@@H]3CC=C4C[C@@H](O)CC[C@]4(C)[C@H]3CC[C@]12C`, in data set [1], the inhibition entry is “inactive”.

As to `C[C@H](CCC(=O)N[C@@H](Cc1ccccc1)C(=O)O)[C@H]1CC[C@H]2[C@@H]3CC=C4C[C@@H](O)CC[C@]4(C)[C@H]3CC[C@]12C`, in data set [2], the IC50 is over 100 µM. Same read-out and setting: the value for `C[C@H](CCC(=O)N[C@@H](CO)C(=O)O)[C@H]1CC[C@H]2[C@@H]3CC=C4C[C@@H](O)CC[C@]4(C)[C@H]3CC[C@]12C` was over 100 µM. On to `C[C@H](CCC(=O)N[C@@H](Cc1c[nH]c2ccc(O)cc12)C(=O)O)[C@H]1CC[C@H]2[C@@H]3CC=C4C[C@@H](O)CC[C@]4(C)[C@H]3CC[C@]12C`, for which the Activity result in data set [3] is on record as “Non-toxic”. In turn, `C[C@H](CCC(=O)O)[C@H]1CC[C@H]2[C@@H]3CC=C4C[C@@H](O)CC[C@]4(C)[C@H]3CC[C@]12C` showed a 50% inhibitory concentration (IC50) in data set [2] of 39.8 µM. In other words, the double-digit micromolar range. Regarding `C[C@H](CCC(=O)NCC(=O)O)[C@H]1CC[C@H]2[C@@H]3CC=C4C[C@@H](O)CC[C@]4(C)[C@H]3CC[C@]12C`, the inhibition result in data set [1] was “inactive”.

On to `CSCC[C@H](NC(=O)CC[C@@H](C)[C@H]1CC[C@H]2[C@@H]3CC=C4C[C@@H](O)CC[C@]4(C)[C@H]3CC[C@]12C)C(=O)O`, for which, in data set [1], the inhibition result is “inactive”. Turning to `C[C@H](CCC(=O)N[C@H](CC(=O)O)Cc1c[nH]c2ccccc12)[C@H]1CC[C@H]2[C@@H]3CC[C@@H]4C[C@H](O)CC[C@]4(C)[C@H]3CC[C@]12C`, the EC50 in [4] turned out to be 4 µM. Moreover, in [5], the Activity worked out at 30%. Besides, in data set [6], the Cmax turned out to be 14 nM. For the same compound, the exposure AUC(0-t) in data set [7] was found to be 21.2 ng·h/mL. Moreover, the remaining at 24 h, 1 µM in data set [8] worked out at 98.3%. For the same compound, in data set [9], the logD at 4 h turned out to be 4.9. For the same compound, the remaining at 1 h, 1 µM in data set [10] came out at 56%. Further, the solubility kinetic at 2 h in [11] was found to be 31.8 µM (≈ 18.3 µg/mL).
